Assay [1] addresses mutant cKIT (560-576 and V654A) in GIST430/654 cell line (Homo sapiens (Human), UniProt P10721, DEL560-576/V654A). The experiment in a line: Cellular testing of cKIT mutant inhibitors: phospho-Y307-cKIT Luminex assay in GIST430/654 cells. The format is cell-based. The settings on record: read-out: GIST 430/654 IC50. The procedure:
Assay Principle for Cellular Testing of cKIT Mutant Inhibitors
The GIST430/654 cell line expressing mutated constitutively active cKIT receptor tyrosine kinase ([…]560-576 and V654A) was employed for assessing cellular potency of compounds. Cellular activity of mutant cKIT was determined by the degree of cKIT autophosphorylation at tyrosine 307 using a Luminex-based bead assay. GIST430/654 cells were plated with 25,000 cells per well of a 96-well plate in 100 μl medium (85% IMDM/15% FCS supplemented with 100 nM Imatinib). At the following day compounds were added in a serial dilution for 45 min. Then, cells were lysed with 90 μl lysis buffer (20 mM Hepes pH 7.5, 200 mM NaCl, 1.5 mM MgCl2×6H2O, 0.4 mM EDTA, 1% Triton-X-100, 1% Phosphatase-Inhibitor II, 20 mM D-Glycerolphosphat, 0.1% Protease-Inhibitor Cocktail III, 0.01% Benzonase) und lysates were cleared by centrifugation through a 96-well filter plate (0.65 μm). Samples were incubated with Luminex-beads which were coupled with an anti-total cKIT antibody overnight at 4° C. under gentle agitation. For detection of phospho-Y307-cKIT a phosphospecific antibody and a species-specific PE-labelled secondary antibody were added. The amount of phospho-Y307-cKIT was determined in a Luminex 200 instrument measuring 100 events per well within 60 seconds.
Counts from samples treated with compounds were calculated as percent of control from solvent treated (0.3% DMSO) samples. Dose-response curves were fitted and IC50 values were determined using Genedata Screener software.

Assay [2] concerns the target c-Kit(V654A) (Homo sapiens, UniProt P10721, V654A). The assay is described as follows: c-Kit(V654A) assay. In kind it is biochemical. The procedure: c-Kit(V654A) (N-terminal GST-tagged, recombinant human c-Kit, amino acids 544-end containing the V654A mutation) is incubated with 8 mM MOPS pH 7.0, 0.2 mM EDTA, 250 μM GGMEDIYEFMGGKKK, 10 mM MgAcetate and [gamma-33P-ATP](specific activity approx. 500 cpm/pmol, concentration 200 μM). The reaction is initiated by the addition of the MgATP mix. After incubation for 40 minutes at room temperature, the reaction is stopped by the addition of 3% phosphoric acid solution. 10 μL of the reaction is then spotted onto a P30 filtermat and washed three times for 5 minutes in 75 mM phosphoric acid and once in methanol prior to drying and scintillation counting.

[3] abbreviates: Table 1, cKIT autophosphorylation, compounds 45 min.
[4] abbreviates: Table 2, corresponding triazole derivatives.

Like-named read-outs stand apart in the source and are kept apart here.

mutant cKIT (560-576 and V654A) in GIST430/654 cell line, sequence (P10721 other isoform, or with tags, fused parts or gaps V654A/del 1-25/del 560-576 limits assumed): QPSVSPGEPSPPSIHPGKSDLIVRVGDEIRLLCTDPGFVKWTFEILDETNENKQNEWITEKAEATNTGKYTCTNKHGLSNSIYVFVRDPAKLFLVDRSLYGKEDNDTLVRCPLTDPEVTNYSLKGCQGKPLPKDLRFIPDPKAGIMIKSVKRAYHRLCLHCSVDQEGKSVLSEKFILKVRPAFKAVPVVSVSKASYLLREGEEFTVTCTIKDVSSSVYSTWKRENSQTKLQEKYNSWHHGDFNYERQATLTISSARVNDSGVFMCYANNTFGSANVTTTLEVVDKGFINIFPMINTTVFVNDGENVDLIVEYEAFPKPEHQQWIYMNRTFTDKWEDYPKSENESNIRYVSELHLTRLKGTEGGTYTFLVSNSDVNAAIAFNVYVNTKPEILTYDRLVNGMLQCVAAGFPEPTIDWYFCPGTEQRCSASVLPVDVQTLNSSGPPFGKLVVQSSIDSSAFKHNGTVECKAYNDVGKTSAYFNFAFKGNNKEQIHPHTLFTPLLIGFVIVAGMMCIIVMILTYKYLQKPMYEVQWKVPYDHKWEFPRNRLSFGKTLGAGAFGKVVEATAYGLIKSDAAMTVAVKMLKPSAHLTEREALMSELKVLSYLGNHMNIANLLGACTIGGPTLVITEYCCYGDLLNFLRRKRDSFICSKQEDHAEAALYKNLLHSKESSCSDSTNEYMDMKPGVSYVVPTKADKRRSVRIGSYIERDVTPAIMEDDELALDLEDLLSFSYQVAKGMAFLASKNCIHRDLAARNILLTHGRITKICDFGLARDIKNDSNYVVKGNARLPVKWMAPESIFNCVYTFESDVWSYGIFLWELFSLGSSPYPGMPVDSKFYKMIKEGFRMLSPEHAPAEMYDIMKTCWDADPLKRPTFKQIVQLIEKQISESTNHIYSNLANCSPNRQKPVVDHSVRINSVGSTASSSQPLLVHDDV

For `COCCOc1cc2[nH]nc(-c3cc(-c4ccc(C(=O)N5CC(C)(N(C)C)C5)cc4)no3)c2cc1F` [A181, 1-(4-{5-[5-fluoro-6-(2-methoxyethoxy)-1H-indazol-3-yl]-1,2-oxazol-3-yl}benzoyl)-N,N,3-trimethylazetidin-3-amine], the IC50 was 40 nM in assay [1] (setting [3]) and 1 nM in assay [2] (Table 1, 200 μM ATP).

Consider `COCCOc1cc2[nH]nc(-c3cn(-c4ccc(C(=O)N5CC(c6ccncc6)C5)cc4)nn3)c2cc1F` [reference compound], for which the results for the IC50 in assay [1] (setting [4]) and in assay [2] (setting [4]) were 160 nM and 2.6 nM, respectively. With `COCCOc1cc2[nH]nc(-c3cc(-c4nc(C(=O)N5CC(N6CCOCC6)C5)cs4)no3)c2cc1F` [A84, 5-fluoro-6-(2-methoxyethoxy)-3-(3-{4-[3-(morpholin-4-yl)azetidine-1-carbonyl]-1,3-thiazol-2-yl}-1,2-oxazol-5-yl)-1H-indazole], the IC50 turned out to be 1800 nM in assay [1] (setting [3]) and 35 nM in assay [2] (Table 1, 200 μM ATP).

`COCCOc1cc2[nH]nc(-c3cc(-c4ccc(C(=O)N5CCC[C@@H]5C(C)(C)O)nc4)no3)c2cc1F` [A109, (5-{5-[5-fluoro-6-(2-methoxy-ethoxy)-1H-indazol-3-yl]-isoxazol-3-yl}-pyridin-2-yl)-[(R)-2-(1-hydroxy-1-methyl-ethyl)-pyrrolidin-1-yl]-methanone]: the IC50 was found to be 430 nM in assay [1] (setting [3]) and 9.1 nM in assay [2] (Table 1, 200 μM ATP). For `COCCOc1cc2[nH]nc(-c3cc(-c4ccc(C(=O)N5CC(F)C5)cn4)no3)c2cc1F` [A81, 5-fluoro-3-{3-[5-(3-fluoroazetidine-1-carbonyl)pyridin-2-yl]-1,2-oxazol-5-yl}-6-(2-methoxyethoxy)-1H-indazole], the IC50 in assay [1] (setting [3]) was 210 nM; in assay [2] (Table 1, 200 μM ATP), 6 nM. `COCCOc1cc2[nH]nc(-c3cc(-c4ccc(C(=O)N5CCN([C@@H]6CCOC6)CC5)cc4)no3)c2cc1F` [A185, 5-fluoro-6-(2-methoxyethoxy)-3-[3-(4-{4-[(3R)-oxolan-3-yl]piperazine-1-carbonyl}phenyl)-1,2-oxazol-5-yl]-1H-indazole]: the IC50 in assay [1] (setting [3]) was found to be 60 nM; in assay [2] (Table 1, 200 μM ATP) it was 1.1 nM. Take `COCCOc1cc2[nH]nc(-c3cn(-c4ccc(C(=O)N5Cc6ccncc6C5)cc4)nn3)c2cc1F` [reference compound]: the IC50 worked out at 140 nM in assay [1] (setting [4]) and 2.3 nM in assay [2] (setting [4]). `COCCOc1cc2[nH]nc(-c3cc(-c4ccc(C(=O)N5CC(N6CCOC[C@@H]6C)C5)cc4)no3)c2cc1F` [A200, 5-fluoro-6-(2-methoxyethoxy)-3-[3-(4-{3-[(3S)-3-methylmorpholin-4-yl]azetidine-1-carbonyl}phenyl)-1,2-oxazol-5-yl]-1H-indazole]: the IC50 stood at 19 nM in assay [1] (setting [3]) and 1.3 nM in assay [2] (Table 1, 200 μM ATP). On the same counts, the results for `COCCOc1cc2[nH]nc(-c3cc(-c4cccc(C(=O)N(C)C)c4)no3)c2cc1F` [A135, 3-{5-[5-fluoro-6-(2-methoxy-ethoxy)-1H-indazol-3-yl]-isoxazol-3-yl}-N,N-dimethyl-benzamide] are 340 nM and 4.9 nM. As for `[2H]C1([2H])N(C(=O)c2ccc(-c3cc(-c4n[nH]c5cc(OCCOC)c(F)cc45)on3)cc2)C([2H])([2H])C([2H])([2H])N(C2COC2)C1([2H])[2H]` [A233, 5-fluoro-6-(2-methoxyethoxy)-3-(3-{4-[4-(oxetan-3-yl)(2,2,3,3,5,5,6,6-^2H8)piperazine-1-carbonyl]phenyl}-1,2-oxazol-5-yl)-1H-indazole], the IC50 in assay [1] (setting [3]) amounted to 76 nM; in assay [2] (Table 1, 200 μM ATP) it was 1 nM. On the same counts, the results for `COCCOc1cc2[nH]nc(-c3cc(-c4nc(C(=O)N5CC(F)C5)cs4)no3)c2cc1F` [A87, 5-fluoro-3-{3-[4-(3-fluoroazetidine-1-carbonyl)-1,3-thiazol-2-yl]-1,2-oxazol-5-yl}-6-(2-methoxyethoxy)-1H-indazole] are 590 nM and 38 nM. The corresponding values for `COCCOc1cc2[nH]nc(-c3cc(-c4ccc(C(=O)NCCN(C)C)cc4)no3)c2cc1F` [A72, N-[2-(dimethylamino)ethyl]-4-{5-[5-fluoro-6-(2-methoxyethoxy)-1H-indazol-3-yl]-1,2-oxazol-3-yl}benzamide] are 320 nM and 2.6 nM. The corresponding values for `COCCOc1cc2[nH]nc(-c3cc(-c4ccc(C(=O)N5CCOC[C@@H]5CS(C)(=O)=O)cc4)no3)c2cc1F` [A184, (4-{5-[5-fluoro-6-(2-methoxy-ethoxy)-1H-indazol-3-yl]-isoxazol-3-yl}-phenyl)-((R)-3-methanesulfonylmethyl-morpholin-4-yl)-methanone] are 120 nM and 1.1 nM. Turning to `COCCOc1cc2[nH]nc(-c3cc(-c4ccc(C(=O)N5CCN(C6COC6)CC5)nc4)no3)c2cc1F` [A68, (5-{5-[5-fluoro-6-(2-methoxy-ethoxy)-1H-indazol-3-yl]-isoxazol-3-yl}-pyridin-2-yl)-(4-oxetan-3-yl-piperazin-1-yl)-methanone], the IC50 in assay [1] (setting [3]) came out at 870 nM; in assay [2] (Table 1, 200 μM ATP) it was 16 nM. `COCCOc1cc2[nH]nc(-c3cn(-c4ccc(C(=O)N5CC(N6CCOCC6)C5)c(F)c4)nn3)c2cc1F` [reference compound]: the IC50 stood at 700 nM in assay [1] (setting [4]) and 20 nM in assay [2] (setting [4]). For `COCCOc1cc2[nH]nc(-c3cc(-c4ccc(N5CCN(C)CC5)nc4)no3)c2cc1F` [A39, 5-fluoro-6-(2-methoxyethoxy)-3-{3-[6-(4-methylpiperazin-1-yl)pyridin-3-yl]-1,2-oxazol-5-yl}-1H-indazole], the IC50 in assay [1] (setting [3]) was 150 nM; in assay [2] (Table 1, 200 μM ATP), 1.7 nM. Take `COCCOc1cc2[nH]nc(-c3cc(-c4ccc(-n5cncn5)cc4)no3)c2cc1Cl` [A14, 5-chloro-6-(2-methoxyethoxy)-3-{3-[4-(1H-1,2,4-triazol-1-yl)phenyl]-1,2-oxazol-5-yl}-1H-indazole]: the IC50 in assay [1] (setting [3]) was found to be 510 nM; in assay [2] (Table 1, 200 μM ATP) it was 8.8 nM. As to `COCCOc1cc2[nH]nc(-c3cc(-c4ccc(C(=O)N5CCN(C)CC5)cc4)no3)c2cc1F` [A36, 5-fluoro-6-(2-methoxyethoxy)-3-{3-[4-(4-methylpiperazine-1-carbonyl)phenyl]-1,2-oxazol-5-yl}-1H-indazole], the IC50 in assay [1] (setting [3]) was determined as 120 nM; in assay [2] (Table 1, 200 μM ATP) it was 1.2 nM. For `COCCOc1cc2[nH]nc(-c3cn(-c4ccc(C(=O)N(C)C)cc4)nn3)c2cc1F` [reference compound], the IC50 in assay [2] (setting [4]) came out at 11 nM. `COCCOc1cc2[nH]nc(-c3cc(-c4ncc(C(=O)N5CC(F)C5)s4)no3)c2cc1F` [A86, 5-fluoro-3-{3-[5-(3-fluoroazetidine-1-carbonyl)-1,3-thiazol-2-yl]-1,2-oxazol-5-yl}-6-(2-methoxyethoxy)-1H-indazole] displayed an IC50 in assay [2] (Table 1, 200 μM ATP) of 69 nM.

Regarding `COCCOc1cc2[nH]nc(-c3cc(-c4cncs4)no3)c2cc1F` [A48, 5-fluoro-6-(2-methoxyethoxy)-3-[3-(1,3-thiazol-5-yl)-1,2-oxazol-5-yl]-1H-indazole], in assay [2] (Table 1, 200 μM ATP), the IC50 amounted to 13 nM. With `COCCOc1cc2[nH]nc(-c3cc(-c4ccc(OC)nc4)no3)c2cc1F` [A130, 5-fluoro-6-(2-methoxy-ethoxy)-3-[3-(6-methoxy-pyridin-3-yl)-isoxazol-5-yl]-1H-indazole], in assay [2] (Table 1, 200 μM ATP), the IC50 was determined as 27 nM.

In assay [2] (Table 1, 200 μM ATP), `COCCOc1cc2[nH]nc(-c3cc(-c4ccc(N5CCS(=O)(=O)CC5)cc4)no3)c2cc1F` [A122, 4-(4-{5-[5-fluoro-6-(2-methoxyethoxy)-1H-indazol-3-yl]-1,2-oxazol-3-yl}phenyl)-1lambda6-thiomorpholine-1,1-dione] registered an IC50 of 54 nM.

In assay [2] (Table 1, 200 μM ATP), `COCCOc1cc2[nH]nc(-c3cc(-c4ncc(C(=O)N5CC(N6CCOCC6)C5)s4)no3)c2cc1F` [A83, 5-fluoro-6-(2-methoxyethoxy)-3-(3-{5-[3-(morpholin-4-yl)azetidine-1-carbonyl]-1,3-thiazol-2-yl}-1,2-oxazol-5-yl)-1H-indazole] displayed an IC50 of 76 nM.

`COC(=O)c1ccc2c(-c3cc(-c4ccc(C(=O)N(C)C)cc4)no3)n[nH]c2c1` [A19, methyl 3-{3-[4-(dimethylcarbamoyl)phenyl]-1,2-oxazol-5-yl}-1H-indazole-6-carboxylate] came in with an IC50 in assay [2] (Table 1, 200 μM ATP) of 8.2 nM. As to `COCCOc1cc2[nH]nc(-c3cn(-c4ccc(C(=O)N5CCOCC5)cc4)nn3)c2cc1F` [reference compound], the IC50 in assay [1] (setting [4]) came to 490 nM.

In the case of `CNC(=O)c1ccc2c(-c3cc(-c4ccc(C(=O)N(C)C)cc4)no3)n[nH]c2c1` [A24, 3-[3-(4-dimethylcarbamoyl-phenyl)-isoxazol-5-yl]-1H-indazole-6-carboxylic acid methylamide], in assay [2] (Table 1, 200 μM ATP), the IC50 came to 88 nM.
